According to patent US7048939B2, “Methods for the inhibition of neointima formation” (The Board of Trustees of the Leland Stanford Junior …, priority 2001, dated 2006):

How the values were obtained:
[1] = test system: infra-renal abdominal aorta; assay: Morphological analysis of intima/media ratios 28 days after in vivo stent implantation; design: species or system New Zealand White rabbits; conditions: 28 days after stent implantation, stent-based local release from microspheres, 0.25% cholesterol diet
Method: Microsphere Preparation. Biodegradable poly(lactic-co-glycolic-acid)-polyethylene glycol (PLGA/PEG) microspheres were prepared as a modification of previously described techniques. […] Additionally, a pH buffer of 7.4 was incorporated to limit local pH changes in order to stabilize incorporated drugs and render the microspheres more biocompatible. During the microsphere manufacturing process, 2.0 mg of the angiogenesis inhibitor angiostatin (Calbiochem, La Jolla, Calif.) in […] phosphate buffered saline was added to the polymer solution. Control microspheres (blank microspheres) containing polymer and buffer without any drug were also prepared. Stents were prepared as above. In Vivo Stent Implantation. Age-matched adult male New Zealand White rabbits weighing 3.8–4.2 kg were used in accordance to NIH and institutional guidelines (n=6 animals per group). Under general anesthesia, an arteriotomy at the femoral artery was performed and a 5 Fr introducing sheath was placed. Under fluoroscopic guidance, aseptically prepared channeled stents filled with blank or angiostatin microspheres were deployed in the infra-renal abdominal aorta. Stents were post-dilated at 8 atm with a 5 mm angioplasty balloon (Jupiter, Cordis, Miami, Fla.) to a final lumen size of 125% above the baseline with care taken to ensure that […] were present within the stent segment. Pre- and post-deployment digital subtraction angiograms were recorded for the blank procedural control and angiostatin treatment groups. The rabbits were fed a 0.25% cholesterol diet after the intervention. Early 7 day follow up (n=3 per group) or late 28 day follow-up (n=3 per group) animals underwent total-body perfusion-fixation as previously described with immediate excision of the aortic segment containing stent. The 7 day aortic specimens were excised longitudinally and stents were removed. The resulting aortic segments were divided into two equal subsegments. One subsegment of each underwent fixation in 10% neutral buffered formalin and embedded in paraffin-for light microscopic and morphologic analysis. The remaining subsegment of each specimen was snap frozen for molecular assay. The 28 days aortic specimens were fixed in 10% neutral buffered formalin and were embedded in PolyBed (Polysciences, Warrington, Pa.) for light microscopic and morphologic analysis. Morphological Analysis of Intima/Media (I/M) Ratios. The seven day analysis consisted of thick (5 μm) cross sections of the aortic wall were obtained from the paraffin-embedded specimens (n=9 sections per group). An elastic von Gieson-Masson trichrome or Elastica van Gieson-Hematoxylin double stain was performed for light microscopic analysis. For the 28 day specimen analysis (n=3 animals per group), each plastic-embedded aorta with stents was cut into five pieces longitudinally equal lengths. These pieces were stained by modified Verhoff elastic staining. Five cross sectional images of the stained aorta were obtained (n=15 sections per group) from one side of plastic pieces. […] Using Image Pro Plus software (Media Cybernetics, Silver Spring, Md.), the cross-sectional area of the intima and the media were determined by blinded observers. The ratio of intima area to media area subsequently tabulated for each, with the results presented as Table 2. Mean, standard error, and significance were determined.

[2] = test system: infra-renal abdominal aorta; assay: Local plaque stability parameters: macrophage infiltrate and endothelial density (CD31); type: in vivo, New Zealand White rabbits; conditions: 7 days after stent implantation
Method: In Vivo Stent Implantation. Age-matched adult male New Zealand White rabbits weighing 3.8–4.2 kg were used in accordance to NIH and institutional guidelines (n=6 animals per group). Under general anesthesia, an arteriotomy at the femoral artery was performed and a 5 Fr introducing sheath was placed. Under fluoroscopic guidance, aseptically prepared channeled stents filled with blank or angiostatin microspheres were deployed in the infra-renal abdominal aorta. Stents were post-dilated at 8 atm with a 5 mm angioplasty balloon (Jupiter, Cordis, Miami, Fla.) to a final lumen size of 125% above the baseline with care taken to ensure that […] were present within the stent segment. Pre- and post-deployment digital subtraction angiograms were recorded for the blank procedural control and angiostatin treatment groups. […]
Evaluation of Local Plaque Stability Parameters: Macrophage Infiltrate and Endothelial Density. Cross sections at the 7 day time point evaluated above were obtained (two per segment) from each vessel and incubated with a primary monoclonal antibody to rabbit macrophage (clone RAM-11, 1/800 dilution, DAKO, Carpinteria, Calif.). The number of positive cells per cross section was counted by a blinded observer. […] Mean and standard error were tabulated for each group with significance determined as before and p values as reported.

CCC[C@H](N[C@@H](C)C(=O)N1[C@H](C(=O)O)C[C@@H]2CCCC[C@@H]21)C(=O)O [ATIIr, perindoprilate, reference compound]
Intima to media ratio (ratio of intimal area to medial area, mean ± SE) [1]: 1.730 ± 0.090

CCNCCN(CC)N(O)N=O [NO, N-Ethyl-2-(1-ethyl-2-hydroxy-2-nitrosohydrazino) ethanamine, reference compound]
Intima to media ratio (ratio of intimal area to medial area, mean ± SE) [1]: 1.338 ± 0.051

CN1CCC[C@H]1c1cccnc1 [Nicotine, S-3-(1-methyl-2-pyrrolidinyl)pyridine, reference compound]
Intima to media ratio (ratio of intimal area to medial area, mean ± SE) [1]: 1.377 ± 0.060

AAT: elastase inhibitor alpha-1-antitrypsin (Calbiochem)
Intima to media ratio (ratio of intimal area to medial area, mean ± SE) [1]: 1.322 ± 0.060

Angiostatin
Intima to media ratio (ratio of intimal area to medial area, mean ± SE) [1]: 1.610 ± 0.050 | Number of plaque microvessels (CD31) per cross section (mean ± SE) [2]: 0.111 ± 0.111 | Number of cross-sectional macrophages (mean ± SE) ([2]; RAM-11 positive cells per cross section): 34.889 ± 3.948 P = 0.0011

FGF: acidic FGF (Calbiochem) loaded with endotoxin-free heparin as a stabilizer
Intima to media ratio (ratio of intimal area to medial area, mean ± SE) [1]: 1.634 ± 0.051

TGFβ1: transforming growth factor β1 (Oncogene Research)
Intima to media ratio (ratio of intimal area to medial area, mean ± SE) [1]: 1.803 ± 0.053

B1: Fas ligand: pro-apoptotic factor, death domain receptor ligand (Oncogene Research) (protein, UniProt P48023 130-281, looked up)
Tumor necrosis factor ligand …: QIGHPSPPPEKKELRKVAHLTGKSNSRSMPLEWEDTYGIVLLSGVKYKKGGLVINETGLYFVYSKVYFRGQSCNNLPLSHKVYMRNSKYPQDLVMMEGKMMSYCTTGQMWARSSYLGAVFNLTSADHLYVNVSELSLVNFEESQTFFGLYKL
Intima to media ratio (ratio of intimal area to medial area, mean ± SE) [1]: 1.356 ± 0.053
